{"source": "paper PMC7305224", "about": "“Mutually stabilizing interactions between proto-peptides and RNA” (Nature Communications, 2020)", "key": {"[1]": {"conditions": "cited from earlier work", "excerpt": "Several lines of evidence support the importance of electrostatic interactions in the observed stabilizations of RNA duplexes. First, as would be expected, higher numbers of cationic residues present in the depsipeptide/peptide led to greater increases in RNA duplex Tm (Table 1, entries #1–7). Second, the effect of His-containing depsipeptides was pH-dependent (Figs. 2d and 3c, d), as expected based on the His pKa of ~6.0. […] The ineffectiveness of this sequence is probably due to the l ..."}, "[2]": {"test_system": "5′-Cy5-U20 RNA", "test": "Gel mobility (band) shift assay", "format": "binding", "conditions": "66.6–530 µM FAM-labeled sequence, 5′-Cy5-U20 RNA 26.6 µM, MES-TEA buffer pH 6, 12% native polyacrylamide gel", "method": "The gel was cropped at the edges for clarity. […] Spectra were recorded in 100 mM MES-TEA buffer (pH 6). d Plot of the change in CD signal at 266 nm as a function of increasing concentrations of depsipeptide 14. Red and blue colors of the filled circles correspond to curves of the same color in panel (c). […] […] An addition of 1.25 µL of glycerol brought the sample volume to a total of 3.75 µL. Samples were loaded onto a 12% native polyacrylamide gel, run at 100 V for 90 min, and imaged using Azure Biosystems c430."}, "[3]": {"test_system": "RNA duplex 1 (5′-rCrGrCrUrArArArUrCrG-3′ & 5′-rCrGrArUrUrUrArGrCrG-3′)", "test": "RNA thermal denaturation (Tm) by UV hyperchromicity at 260 nm with synthetic peptides/depsipeptides, RNA duplex 1", "format": "binding"}, "[4]": {"test_system": "RNA duplex 1", "test": "CD analysis of RNA duplex with peptides/depsipeptides", "format": "binding", "excerpt": "The gel was cropped at the edges for clarity. […] […] Red and blue colors of the filled circles correspond to curves of the same color in panel (c). […] […] Scans were from 320 nm to 220 nm with a bandwidth of 5 nm, data pitch of 0.2 nm, and scan rate of 50 nm/min with three accumulations. […] Data were collected in independent triplicates and the data were averaged. Finally, data were smoothed and plotted using Matlab."}, "[5]": {"test_system": "H26a RNA (5′-rArUrGrArGrUrArArCrCrGrUrArArGrGrUrGrArArArUrU-3′)", "test": "RNA thermal denaturation (Tm) by UV hyperchromicity, H26a RNA hairpin", "format": "binding", "method": "(§1) Prior to Tm analyses, RNA samples were annealed in the appropriate buffer by heating to 75 °C and slowly cooling to room temperature. Depsipeptide/peptide was added to the annealed RNA and incubated at 4 °C for 20 min prior to carrying out the analysis. For analyses involving dry-down reaction mixtures, the Tm was determined by monitoring fluorescence increase upon melting of a fluorophore/quencher-labeled RNA duplex (5′-rCrGrArUrUrUrArGrCrG-/3IABkFQ/-3′ and 3′-rGrCrUrArArArUrCrGrC-FAM-5′) using a BioRad CFX Connect rtPCR instrument with a heating ramp of 1 °C/min and 20 μL final sample volumes. For analyses involving pure, synthetic compounds, the Tm of the RNA was determined by monitoring UV hyperchromicity at 260 nm using a Varian Cary Bio-100 spectrophotometer, with a heating ramp of 1 °C/min and 0.5- or 1-cm pathlength cells. The following RNA sequences were used: RNA duplex 1 = 5′-rCrGrCrUrArArArUrCrG-3′ and 5′-rCrGrArUrUrUrArGrCrG-3′; RNA duplex 2 = 5′-rArArArArUrUrUrArUrArUrUrArUrUrA-3′ and 5′-rUrArArUrArArUrArUrArArArUrUrUrU-3′; RNA duplex 3 = 5′-rArArCrGrUrArUrArCrGrUrU-3′ (palindromic); and H26a RNA = 5′-rArUrGrArGrUrArArCrCrGrUrArArGrGrUrGrArArArUrU-3′. RNA was present in each assay at a final concentration of 2.5 μM of the folded structure (2.5 μM each strand for duplex 1 and duplex 2, 5.0 μM palindromic strand for duplex 3, 2.5 μM strand for H26a RNA). Tm values were determined by nonlinear fitting of the melting curves using GraphPad Prism 8.2.1 for duplex 1 and H26a, or by finding the maximum of the first derivative of the curve using the Varian Cary Bio-100 software for duplex 2 and duplex 3. Both methods of determining the Tm gave similar values for a given denaturation curve."}, "[6]": {"test_system": "RNA duplex 1 (5′-rCrGrCrUrArArArUrCrG-3′ & 5′-rCrGrArUrUrUrArGrCrG-3′)", "test": "RNA thermal denaturation (Tm) by UV hyperchromicity at 260 nm with synthetic peptides/depsipeptides, RNA duplex 1", "format": "binding", "conditions": "100 mM NaCl", "method": "Each sample contained RNA duplex 1 (5′-rCrGrCrUrArArArUrCrG-3′ and 5′-rCrGrArUrUrUrArGrCrG-3′, 2.5 μM strand) and peptide/depsipeptide (100 μM) in buffered solution (10 mM phosphate, 100 mM NaCl, pH 7.0 or 10 mM acetate, 100 mM NaCl, pH 5.0). a Structures of depsipeptides used to systematically characterize cationic side chain effects on RNA duplex stability. Lactic acid residues are highlighted. Ac acetyl, Aba acetamidobenzoic acid, which was appended to the N-terminus to increase UV absorbance. b Structures of the Fmoc-didepsipeptide building blocks used for solid-phase synthesis of depsipeptide sequences. Fmoc fluorenylmethoxycarbonyl. c Comparative effects of oligo-didepsipeptide sequences 2–6 and analogous oligo-dipeptide and on the Tm of the RNA duplex (number of independent measurements: n = 3 for Arg and Lys sequences; n = 2 for His and Dab sequences; n = 4 for Orn sequences). The shaded areas correspond to the mean ± SD Tm measured for the RNA duplex alone (n = 16 independent measurements). Data are shown as a scatter plot with mean ± SD. d Comparative effects on RNA duplex Tm of depsipeptide sequences containing a single backbone ester (number of independent measurements: n = 3 for Arg; n = 2 for His, Orn, and Dab; n = 4 for Lys), relative to RNA duplex alone (n = 16 independent measurements). Data are shown as a scatter plot with mean ± SD. e To assess the impact of different cationic side chains on depsipeptide degradation rates, depsipeptides 7–11 (40 μM) were incubated at 37 °C in buffer (100 mM HEPES, 10 mM NaCl, pH 7.3). After 5 min, the reactions were quenched by the addition of 3% TFA, and samples were analyzed by HPLC.\nas §1, with “3.” for “3. Both methods of determining the Tm gave similar values for a given denaturation curve.”"}, "[7]": {"test_system": "RNA duplex 2 (5′-rArArArArUrUrUrArUrArUrUrArUrUrA-3′ and 5′-rUrArArUrArArUrArUrArArArUrUrUrU-3′)", "test": "RNA thermal denaturation (Tm) by UV hyperchromicity, RNA duplex 2", "format": "binding", "method": "as §1"}, "[8]": {"test_system": "RNA duplex 3 (5′-rArArCrGrUrArUrArCrGrUrU-3′, palindromic)", "test": "RNA thermal denaturation (Tm) by UV hyperchromicity, RNA duplex 3", "format": "binding", "method": "as §1"}, "[9]": {"test_system": "10-mer RNA duplex (5′-6-FAM-rCrGrCrUrArArArUrCrG-3′ & 5′-rCrGrArUrUrUrArGrCrG-3IABkFQ-3′)", "test": "RNA duplex Tm by rtPCR fluorescence with dry-down reaction mixtures", "format": "binding", "conditions": "not subjected to the dry-down reaction (non-dried)", "source_text": "Accordingly, we determined the effect of cationic proto-peptides on RNA duplex stability by monitoring changes in the melting temperature (Tm) of a short 10mer RNA duplex in the presence or absence of individual proto-peptide samples (Fig. 2). The complementary RNA strands were 5′- or 3′-labeled with either a fluorophore or a quencher so that the degree of RNA hybridization could be monitored by fluorescence in rtPCR instrumentation (Supplementary Fig. 9). […] For the Tm measurements, the proto-peptide samples were diluted to a final concentration of 25 mM (based on the amount of cationic amino acid used at the start of the dry-down) and mixed with the RNA duplex (2.5 μM each strand).\nDry-down reaction products were dissolved in deionized water to give a 100 mM stock solution based on the amount of monomers used at the start of the dry-down. […]\nPrior to Tm analyses, RNA samples were annealed in the appropriate buffer by heating to 75 °C and slowly cooling to room temperature. […] For analyses involving dry-down reaction mixtures, the Tm was determined by monitoring fluorescence increase upon melting of a fluorophore/quencher-labeled RNA duplex (5′-rCrGrArUrUrUrArGrCrG-/3IABkFQ/-3′ and 3′-rGrCrUrArArArUrCrGrC-FAM-5′) using a BioRad CFX Connect rtPCR instrument with a heating ramp of 1 °C/min and 20 μL final sample volumes."}}, "note": "Non-standard residues stand in square brackets, D forms with d. Residues, ends and D or L forms follow the SMILES beside them. *: point of attachment. 5FAM = O=C1OC2(c3ccc(O)cc3Oc3cc(O)ccc32)c2ccc(C(=O)*)cc21; Dab = NCC[C@H](N)C(=O)O; Lac = C[C@H](O)C(=O)O", "data": [{"molecule": "NCC(N)C(=O)O", "note": "(centres unmarked) [Dpr, 2,3-diaminopropionic acid]", "values": [{"measurement": "pKa of side chain β-amine", "setting": "[1]; when incorporated into oligomeric sequences", "value": "~ 6.3"}]}, {"molecule": "N[C@@H](Cc1c[nH]cn1)C(=O)O", "note": "[His, histidine]", "values": [{"measurement": "pKa", "setting": "[1]; His side chain, no reference given", "value": "~ 6.0"}]}, {"molecule": "C[C@H](NC(=O)CNC(=O)c1ccc2c(c1)C(=O)OC21c2ccc(O)cc2Oc2cc(O)ccc21)C(=O)N[C@@H](CCN)C(=O)N[C@@H](CCCCN)C(=O)N[C@@H](C)C(=O)N[C@@H](CCN)C(=O)N[C@@H](CCCCN)C(=O)N[C@@H](C)C(=O)N[C@@H](CCN)C(=O)N[C@@H](CCCCN)C(=O)N[C@@H](C)C(=O)N[C@@H](CCN)C(=O)N[C@@H](CCCCN)C(=O)N[C@@H](C)C(=O)N[C@@H](CCN)C(=O)N[C@@H](CCCCN)C(N)=O", "note": "[compound 12, 5-FAM-Gly-Ala-Dab-Lys-Ala-Dab-Lys-Ala-Dab-Lys-Ala-Dab-Lys-Ala-Dab-Lys NH2] (5FAM-GA[Dab]KA[Dab]KA[Dab]KA[Dab]KA[Dab]K-NH2)", "values": [{"measurement": "band shift of RNA in gel mobility shift assay", "setting": "[2]", "value": "concentration-dependent band shift"}, {"measurement": "RNA duplex 1 Tm", "setting": "[3]; observed Tm, peptide/depsipeptide 80 mM (so in the source), pH 7.0, mean ± SD", "value": "54.4 ± 0.6", "unit": "°C"}, {"measurement": "RNA duplex 1 ΔTm", "setting": "[3]; peptide/depsipeptide 80 μM, pH 7.0, 10 mM phosphate, 100 mM NaCl", "value": 10.6, "unit": "°C"}]}, {"molecule": "CC(=O)N[C@@H](Cc1ccc(O)cc1)C(=O)NCC(=O)N[C@@H](C)C(=O)N[C@@H](CCN)C(=O)N[C@@H](CCCCN)C(=O)O[C@@H](C)C(=O)N[C@@H](CCN)C(=O)N[C@@H](CCCCN)C(=O)O[C@@H](C)C(=O)N[C@@H](CCN)C(=O)N[C@@H](CCCCN)C(=O)O[C@@H](C)C(=O)N[C@@H](CCN)C(=O)N[C@@H](CCCCN)C(N)=O", "note": "[compound 14, Ac-Tyr-Gly-Ala-Dab-Lys-lac-Dab-Lys-lac-Dab-Lys-lac-Dab-Lys-NH2] (Ac-YGA[Dab]K[Lac][Dab]K[Lac][Dab]K[Lac][Dab]K-NH2)", "values": [{"measurement": "changes in CD spectra of the RNA duplex upon addition", "setting": "[4]; RNA duplex 5 µM, peptide/depsipeptide 0–10 µM, MES-TEA buffer (60 mM)", "value": "changes were observed in the CD spectra"}, {"measurement": "Kd", "setting": "[4]; change in CD signal at 266 nm, one-site binding model, RNA duplex 1 5 μM each strand, depsipeptide 0–10 μM, MES-TEA buffer pH 6, 5 °C, independent triplicates averaged, read-out: apparent Kd", "value": "~3000", "unit": "nM"}, {"measurement": "H26a RNA Tm", "setting": "[5]; observed Tm with peptide/depsipeptide 100 µM, pH 7.0, RNA alone 53.4 ± 0.5, mean ± SD of 2-4 independent experiments", "value": "63.8 ± 0.6", "unit": "°C"}, {"measurement": "H26a RNA ΔTm", "setting": "[5]; peptide/depsipeptide 100 μM, RNA 2.5 μM strand, pH 7.0, 10 mM phosphate, 100 mM NaCl, mean of 2–4 replicates", "value": 10.4, "unit": "°C"}, {"measurement": "RNA duplex 1 Tm", "setting": "[6]; observed Tm with peptide/depsipeptide 100 µM, pH 7.0, 10 mM phosphate, RNA alone 43.8 ± 0.4, mean ± SD of 2-4 independent experiments", "value": "52.4 ± 1.5", "unit": "°C"}, {"measurement": "RNA duplex 1 ΔTm", "setting": "[6]; peptide/depsipeptide 100 μM, RNA 2.5 μM each strand, 10 mM phosphate, pH 7.0, vs RNA alone at matched pH, mean of 2–4 replicates", "value": 8.6, "unit": "°C"}, {"measurement": "RNA duplex 2 Tm", "setting": "[7]; observed Tm with peptide/depsipeptide 100 µM, pH 7.0, RNA alone 33.7 ± 0.7, mean ± SD of 2-4 independent experiments", "value": "42.8 ± 0.6", "unit": "°C"}, {"measurement": "RNA duplex 2 ΔTm", "setting": "[7]; peptide/depsipeptide 100 μM, RNA 2.5 μM each strand, pH 7.0, 10 mM phosphate, 100 mM NaCl, mean of 2–4 replicates", "value": 9.1, "unit": "°C"}, {"measurement": "RNA duplex 3 Tm", "setting": "[8]; observed Tm with peptide/depsipeptide 100 µM, pH 7.0, RNA alone 48.6 ± 0.7, mean ± SD of 2-4 independent experiments", "value": "58.6 ± 0.7", "unit": "°C"}, {"measurement": "RNA duplex 3 ΔTm", "setting": "[8]; peptide/depsipeptide 100 μM, 5.0 μM palindromic strand, pH 7.0, 10 mM phosphate, 100 mM NaCl, mean of 2–4 replicates", "value": 10.0, "unit": "°C"}]}, {"molecule": "NCCC(O)C(=O)O", "note": "(centres unmarked) [hab, 2-hydroxy-4-aminobutyric acid]", "values": [{"measurement": "effect on RNA duplex Tm, non-dried controls", "setting": "[9]", "value": "no effect on the Tm"}]}, {"molecule": "NCCCCC(O)C(=O)O", "note": "(centres unmarked) [hah, 2-hydroxy-6-aminohexanoic acid]", "values": [{"measurement": "effect on RNA duplex Tm, non-dried controls", "setting": "[9]", "value": "no effect on the Tm"}]}]}
